Like-named read-outs stand apart in the source and are kept apart here.

For orientation: EC50 means the concentration that produces a half-maximal response. By IC50 is commonly meant the concentration needed to halve the response being measured. High values mean a need for much substance, low ones inhibition by little substance. The term Emax denotes the size of the effect at its maximum, as opposed to the concentration needed.

The target in assay [1] is T1, Alpha 2B adrenergic receptor (Homo sapiens, UniProt P18089).
T1 construct: expressed in transfected cells; host or cells: HEK-293
T1 sequence (P18089 1-450): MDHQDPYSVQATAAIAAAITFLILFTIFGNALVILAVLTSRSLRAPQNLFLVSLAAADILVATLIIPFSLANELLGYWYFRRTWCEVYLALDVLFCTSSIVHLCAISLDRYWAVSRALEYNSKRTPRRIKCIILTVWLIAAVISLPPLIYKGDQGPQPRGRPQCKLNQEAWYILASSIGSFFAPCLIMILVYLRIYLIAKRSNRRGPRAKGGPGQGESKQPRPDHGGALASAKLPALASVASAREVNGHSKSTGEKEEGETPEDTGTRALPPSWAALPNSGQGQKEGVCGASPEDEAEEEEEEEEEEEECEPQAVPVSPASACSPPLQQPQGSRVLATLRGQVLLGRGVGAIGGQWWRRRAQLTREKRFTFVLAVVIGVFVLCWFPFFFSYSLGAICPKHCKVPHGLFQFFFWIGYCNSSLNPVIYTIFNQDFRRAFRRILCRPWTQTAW
Nature of the assay: Functional assay in HEK-293 cells (cAMP). The assay is classed as cell-based. The protocol: (§1) Neuro-receptor binding and functional effects of the “E559 polymorph” was examined by analyzing binding affinity [Ki (nM)], functional agonist activity [EC50 (nM)], and functional antagonist activity [IC50 (nM)] against a panel of key receptors in neurophysiological disorders. Binding and functional assays were performed at “E559 polymorph” concentrations of 0.0003, 0.003, 0.01, 0.03, 0.1, 0.3, 1, and 10 μM. In binding assays, cell membrane homogenates, expressing each receptor target, were incubated with the corresponding radio-ligand in absence or presence of several concentration of the “E559 polymorph” compound. The measurement of binding affinity of the “E559 polymorph” is represented in TABLE XIII by Ki (nM) which was calculated as percent inhibition of the binding of a radioactively labeled reference ligand at each receptor. In functional assays the HEK-293 cells expressing each receptor target were suspended in buffer and distribute in microplates and incubated for 30 minutes at room temperature or 37° C. in the presence of buffer alone (basal control), the reference agonist or antagonist, or the “E559 polymorph. Following incubation, the cells were lysed and the appropriate fluorescent probe (Ca2+ flux, cAMP, or IP1) were added for 60 minutes to measure the fluorescence transfer at the appropriate wavelength using a microplate reader. The cellular agonist effect (EC50) was calculated as a percent of control response to a known reference agonist and the cellular antagonist effect (IC50) was calculated as a percent inhibition of control reference agonist response for each receptor.

For assay [2], the target named is T2, Beta 1 adrenergic receptor (Homo sapiens, UniProt P08588).
T2 construct: expressed in transfected cells; host or cells: HEK-293
T2 sequence (P08588 whole entry): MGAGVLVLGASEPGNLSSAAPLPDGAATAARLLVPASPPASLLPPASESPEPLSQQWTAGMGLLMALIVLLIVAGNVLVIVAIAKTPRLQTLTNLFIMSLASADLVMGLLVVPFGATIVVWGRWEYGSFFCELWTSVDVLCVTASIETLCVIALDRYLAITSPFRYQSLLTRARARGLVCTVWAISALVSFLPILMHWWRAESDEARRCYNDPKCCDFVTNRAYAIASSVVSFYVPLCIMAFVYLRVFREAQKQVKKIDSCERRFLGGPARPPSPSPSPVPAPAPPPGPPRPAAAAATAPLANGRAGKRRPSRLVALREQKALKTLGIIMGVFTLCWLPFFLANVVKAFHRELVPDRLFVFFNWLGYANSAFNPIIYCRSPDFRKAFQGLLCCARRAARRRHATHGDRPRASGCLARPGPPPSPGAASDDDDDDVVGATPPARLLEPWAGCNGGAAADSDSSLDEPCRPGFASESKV
Kind of assay: Functional assay in HEK-293 cells (cAMP). The assay is classed as cell-based. The protocol:
as §1

Assay [3] concerns the target T3, Serotonin 7 receptor (5-HT7R) (Homo sapiens, UniProt P34969).
T3 construct: expressed in transfected cells; host or cells: HEK-293
Kind of assay: Functional assay in HEK-293 cells (cAMP). The assay is classed as cell-based. The protocol:
as §1

In another assay the target is D1 dopamine receptor (Homo sapiens, UniProt P21728). Nature of the assay: BRET-based G protein dissociation assay. The assay is classed as cell-based. A general note: In BRET a luciferase serves as donor, and the signal depends on an acceptor being close.
Chain of D1 dopamine receptor (P21728 whole entry): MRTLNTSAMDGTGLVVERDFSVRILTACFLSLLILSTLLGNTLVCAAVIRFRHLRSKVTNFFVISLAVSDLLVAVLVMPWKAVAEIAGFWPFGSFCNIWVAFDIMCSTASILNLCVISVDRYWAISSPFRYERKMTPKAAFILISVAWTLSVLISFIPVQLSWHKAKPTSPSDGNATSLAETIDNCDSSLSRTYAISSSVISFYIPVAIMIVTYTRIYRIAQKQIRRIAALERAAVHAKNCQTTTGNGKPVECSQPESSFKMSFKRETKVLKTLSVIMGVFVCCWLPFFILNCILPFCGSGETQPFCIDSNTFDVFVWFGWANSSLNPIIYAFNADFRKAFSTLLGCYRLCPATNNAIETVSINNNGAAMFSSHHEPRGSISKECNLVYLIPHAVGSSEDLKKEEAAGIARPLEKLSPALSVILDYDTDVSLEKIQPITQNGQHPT
The next assay addresses D3 dopamine receptor (Homo sapiens, UniProt P35462). Kind of assay: BRET-based G protein dissociation assay. The assay is classed as cell-based.
The target of assay [4] is T4, ADRa1A (α1A adrenergic receptor) (Homo sapiens, UniProt P35348).
T4 sequence (P35348 1-466): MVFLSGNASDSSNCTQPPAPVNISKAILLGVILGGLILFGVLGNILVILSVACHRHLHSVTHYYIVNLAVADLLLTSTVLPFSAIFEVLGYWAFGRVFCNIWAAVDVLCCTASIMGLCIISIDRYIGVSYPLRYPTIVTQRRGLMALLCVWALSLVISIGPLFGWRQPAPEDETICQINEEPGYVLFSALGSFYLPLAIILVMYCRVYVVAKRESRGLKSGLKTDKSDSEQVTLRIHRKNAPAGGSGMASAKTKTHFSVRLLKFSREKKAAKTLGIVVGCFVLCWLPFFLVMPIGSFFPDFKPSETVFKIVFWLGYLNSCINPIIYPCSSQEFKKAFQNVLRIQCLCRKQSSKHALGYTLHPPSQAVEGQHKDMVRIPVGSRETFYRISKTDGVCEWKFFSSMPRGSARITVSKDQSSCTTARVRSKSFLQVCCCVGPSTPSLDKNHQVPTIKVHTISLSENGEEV
Kind of assay: BRET-based G protein dissociation assay. The class given is cell-based.

Assay [5] deals with CHRM1 (M1 muscarinic receptor) (Homo sapiens, UniProt P11229). Kind of assay: BRET-based G protein dissociation assay. The assay is classed as cell-based.
Chain of CHRM1 (M1 muscarinic receptor) (P11229 whole entry): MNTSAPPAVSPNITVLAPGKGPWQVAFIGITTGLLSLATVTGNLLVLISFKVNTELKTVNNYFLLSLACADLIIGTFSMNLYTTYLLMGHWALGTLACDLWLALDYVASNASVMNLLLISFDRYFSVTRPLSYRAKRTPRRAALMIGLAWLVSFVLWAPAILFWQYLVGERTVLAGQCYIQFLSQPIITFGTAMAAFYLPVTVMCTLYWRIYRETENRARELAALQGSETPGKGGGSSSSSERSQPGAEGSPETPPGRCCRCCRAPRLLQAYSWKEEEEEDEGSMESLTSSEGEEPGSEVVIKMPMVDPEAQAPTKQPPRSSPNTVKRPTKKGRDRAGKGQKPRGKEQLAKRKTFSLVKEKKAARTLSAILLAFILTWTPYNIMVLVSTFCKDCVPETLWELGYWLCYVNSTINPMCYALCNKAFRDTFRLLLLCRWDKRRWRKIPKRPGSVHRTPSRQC
The subject of another assay is C57BL/6J mice. Kind of assay: Chronic variable stress (CVS) mouse model, open field test and splash test. The class given is in vivo. The conditions noted are these: for CVS induced decrease of time in center of open field: female mice. The protocol: The “polymorph HT compound” (from Example 1) was tested for its anti-depression/anxiety activity in the chronic variable stress (CVS) mouse model as assessed by a self-grooming splash test and an open field test (OFT) [Strekalova et al., Psychopharmacology (Berl). 2022, 239(3):663-693; Willner, P. Neurobiol Stress, 2017, 6:78-93]. In brief, C57BL/6J mice were subjected to a CVS protocol, consisting of 2 stressors per day for 35 days. Naive mice (not exposed to CVS) are used as a control for CVS-induced depression activity. Following the 35 days CVS, mice were treated with the “E559 polymorph” (FIG. 23) via intraperitoneal injection (IP) as follows: single dose after the last day of CVS (3 mg/kg) or 4 doses (1 mg/kg) applied every 48 hours starting on day 28 of CVS. Saline was used as the vehicle control. The splash test and OFT were performed as previously described in (Aguilar-Valles et al., Nature, 2021, 590, p315-319). […] FIG. 23B represents distance travelled in the open field by female mice treated with E559 polymorph. FIG. 23C represents time spend in the center of the open field of mice in FIG. 23B. […] Horizontal lines represent the mean±standard error of the mean (S.E.M.) and asterisks indicate statistical significances.

Another assay concerns the target 5-HT2A receptor (Homo sapiens, UniProt P28223).

Chain of D3 dopamine receptor (P35462 whole entry): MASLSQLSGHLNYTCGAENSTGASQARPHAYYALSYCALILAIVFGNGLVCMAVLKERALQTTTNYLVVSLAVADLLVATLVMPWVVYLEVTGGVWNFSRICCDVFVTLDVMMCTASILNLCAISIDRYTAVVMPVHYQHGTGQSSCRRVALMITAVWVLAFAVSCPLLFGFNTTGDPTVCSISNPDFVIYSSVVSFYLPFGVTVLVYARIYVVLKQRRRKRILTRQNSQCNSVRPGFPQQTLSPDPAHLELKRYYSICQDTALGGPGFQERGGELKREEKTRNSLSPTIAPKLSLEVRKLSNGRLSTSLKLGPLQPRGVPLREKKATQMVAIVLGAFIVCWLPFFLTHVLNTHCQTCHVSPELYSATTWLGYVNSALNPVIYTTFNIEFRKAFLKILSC
Chain of 5-HT2A receptor (P28223 whole entry): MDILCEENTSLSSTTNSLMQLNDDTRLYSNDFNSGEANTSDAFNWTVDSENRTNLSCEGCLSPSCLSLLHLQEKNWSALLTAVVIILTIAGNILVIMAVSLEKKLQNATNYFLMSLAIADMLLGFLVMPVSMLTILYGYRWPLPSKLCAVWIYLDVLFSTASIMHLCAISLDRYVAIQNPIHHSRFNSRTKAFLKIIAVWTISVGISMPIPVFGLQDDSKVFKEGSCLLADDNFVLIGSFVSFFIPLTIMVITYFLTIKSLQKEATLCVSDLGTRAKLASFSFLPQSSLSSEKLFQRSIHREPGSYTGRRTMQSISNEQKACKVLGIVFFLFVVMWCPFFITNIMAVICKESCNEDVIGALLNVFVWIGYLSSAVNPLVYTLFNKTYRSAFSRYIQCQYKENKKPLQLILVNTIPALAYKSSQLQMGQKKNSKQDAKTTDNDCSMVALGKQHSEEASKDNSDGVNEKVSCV
T3 sequence (P34969 whole entry): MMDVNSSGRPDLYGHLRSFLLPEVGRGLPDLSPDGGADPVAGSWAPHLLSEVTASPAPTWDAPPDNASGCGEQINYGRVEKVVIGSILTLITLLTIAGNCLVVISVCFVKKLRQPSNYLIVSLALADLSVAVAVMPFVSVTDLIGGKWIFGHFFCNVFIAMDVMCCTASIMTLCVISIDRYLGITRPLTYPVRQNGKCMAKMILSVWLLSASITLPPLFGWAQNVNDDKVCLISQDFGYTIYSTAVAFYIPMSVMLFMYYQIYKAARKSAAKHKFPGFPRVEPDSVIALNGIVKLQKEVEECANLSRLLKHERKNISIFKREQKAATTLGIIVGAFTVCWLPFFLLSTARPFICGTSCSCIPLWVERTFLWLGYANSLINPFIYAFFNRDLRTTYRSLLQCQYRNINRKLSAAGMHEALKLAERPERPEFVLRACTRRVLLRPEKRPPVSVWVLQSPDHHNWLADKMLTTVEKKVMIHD

In the case of `CCN(CC)C(=O)[C@@H]1C=C2c3cccc4[nH]c(Br)c(c34)C[C@H]2N(C)C1` [E559, (5R, 8R)-2-Bromo-9,10-didehydro-N,N-diethyl-6-methylergoline-8-carboxamide hemi-D-tartrate], the EC50 in assay [1] was over 10000 nM; in assay [2] it was over 10000 nM; in [3], over 10000 nM; at D1 dopamine receptor, 0.12 nM; on D3 dopamine receptor, 2.84 nM; in assay [4] it was 25 nM. Also, the EC50 in assay [5] worked out at 2.96 nM. Besides, the IC50 was 3600 nM in assay [1], 870 nM in [2] and 240 nM in assay [3]. Moreover, the Kb on D1 dopamine receptor was 32.9 nM; on D3 dopamine receptor, 7.13 nM; in assay [4] it was 56.9 nM. The Emax on D3 dopamine receptor stood at 31.8%. In the assay on C57BL/6J mice (4×1 mg/kg), the “CVS effect on time in center in OFT, 28 days after the last treatment” value is “remained reversed”. Further, the “locomotion (total distance travelled) in open field, CVS mice” value in the assay with C57BL/6J mice (4×1 mg/kg) is given as “without affecting locomotion”. Moreover, the “time spent self-grooming in the splash test” value in the assay with C57BL/6J mice (female CVS mice) is given as “partially reversed this CVS-induced effect”. Further, the “CVS induced decrease of time in center of open field” value is on record as “fully reversed to the levels seen in the control” with C57BL/6J mice (IP 4 doses of 1 mg/kg every 48 hours) and “partially restored the effect of CVS” with C57BL/6J mice (IP single dose of 3 mg/kg). The “functional (agonist) activity at 5-HT2A” value at 5-HT2A receptor (FIG. 15, FIG. 16A/B) is “potent partial agonist of 5-HT2A”. For the same compound, the “antagonism of 5-HT activation of 5-HT2A” value at 5-HT2A receptor (Gq dissociation and β-arrestin2 recruitment, FIG. 17A/B) is reported as “antagonizes the 5-HT activation”.
On to `CCN(CC)C(=O)[C@@H]1C=C2c3cccc4[nH]cc(c34)C[C@H]2N(C)C1` [LSD, lysergic acid diethylamide, reference compound], for which the EC50 on D1 dopamine receptor turned out to be 108 nM; on D3 dopamine receptor (agonist mode, read-out: EC50) it was 7.57 nM; in assay [4] (agonist mode, read-out: EC50) it was 38.5 nM; in assay [5] (agonist mode, read-out: EC50), 211 nM. The Emax was 41.3% at D1 dopamine receptor; 74.5% at D3 dopamine receptor (percentage of the reference ligand-induced maximal response, read-out: Emax); 24.8% in assay [4] (percentage of the reference ligand-induced maximal response). For the same compound, at 5-HT2A receptor, the “functional (agonist) activity at 5-HT2A” value was “potent almost full 5-HT2A agonist”.

The record behind these values is patent publication US12331051B2 (priority 2021, dated 2025).
